Experimental data published in PubChem BioAssay (NCI).
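Results reflect a 48-hour exposure of cells in 96-well plates to compound at five concentrations. GI50 = concentration required for 50% inhibition of growth. At the TGI there is no net growth.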

Key:
Assay in all cases: growth of human tumour cells (NCI), 48 h; in the data active = GI50 below about 0.43 µM; inactive = the rest
SK-OV-3 ovarian = tested on: SK-OV-3 ovarian
RXF 393 renal = tested on: RXF 393 renal
EKVX NSCLC = tested on: EKVX NSCLC
KM12 colon = tested on: KM12 colon
SF-295 CNS = tested on: SF-295 CNS
M14 melanoma = tested on: M14 melanoma
NCI-H460 lung = tested on: NCI-H460 lung
T-47D breast = tested on: T-47D breast
A549 NSCLC = tested on: A549 NSCLC
OVCAR-3 ovarian = tested on: OVCAR-3 ovarian
SNB-19 CNS = tested on: SNB-19 CNS
HOP-62 NSCLC = tested on: HOP-62 NSCLC
OVCAR-4 ovarian = tested on: OVCAR-4 ovarian
NCI-H23 lung = tested on: NCI-H23 lung
SN12C renal = tested on: SN12C renal
COLO 205 colon = tested on: COLO 205 colon
SNB-75 CNS = tested on: SNB-75 CNS
HCT-116 colon = tested on: HCT-116 colon
HS 578T breast = tested on: HS 578T breast
CCRF-CEM leukemia = tested on: CCRF-CEM leukemia
HCC-2998 colon = tested on: HCC-2998 colon
NCI-H522 lung = tested on: NCI-H522 lung
IGROV1 ovarian = tested on: IGROV1 ovarian
PC-3 prostate = tested on: PC-3 prostate
NCI/ADR-RES ovarian = tested on: NCI/ADR-RES ovarian
HT29 colon = tested on: HT29 colon
MOLT-4 leukemia = tested on: MOLT-4 leukemia
K-562 leukemia = tested on: K-562 leukemia
SK-MEL-5 melanoma = tested on: SK-MEL-5 melanoma

CCOC(=O)Cn1c(-c2nonc2NC(=O)c2ccccc2F)nc2ccccc21
> 56.7 µM: TGI (A549 NSCLC)
> 100 µM: TGI (SK-OV-3 ovarian) | TGI (EKVX NSCLC) | TGI (KM12 colon) | TGI (M14 melanoma) | TGI (NCI-H460 lung) | TGI (T-47D breast) | TGI (OVCAR-3 ovarian) | TGI (SNB-19 CNS) | TGI (OVCAR-4 ovarian) | TGI (NCI-H23 lung) | TGI (SN12C renal) | TGI (COLO 205 colon) | TGI (HCT-116 colon) | TGI (HS 578T breast) | TGI (CCRF-CEM leukemia) | TGI (HCC-2998 colon) | TGI (IGROV1 ovarian) | TGI (NCI/ADR-RES ovarian) | TGI (HT29 colon) | TGI (MOLT-4 leukemia) | TGI (K-562 leukemia) | TGI (SK-MEL-5 melanoma)
47.7 µM: TGI (HOP-62 NSCLC)
inactive: GI50 (SK-OV-3 ovarian) 21.3 µM | GI50 (RXF 393 renal) 5.67 µM | GI50 (EKVX NSCLC) 28 µM | GI50 (KM12 colon) 1.93 µM | GI50 (SF-295 CNS) 2.77 µM | GI50 (M14 melanoma) 74.1 µM | GI50 (NCI-H460 lung) 0.579 µM | GI50 (T-47D breast) 44.1 µM | GI50 (A549 NSCLC) 0.768 µM | GI50 (OVCAR-3 ovarian) 7.07 µM | GI50 (SNB-19 CNS) 5.58 µM | GI50 (HOP-62 NSCLC) 10.8 µM | GI50 (OVCAR-4 ovarian) 11.8 µM | GI50 (NCI-H23 lung) > 70.1 µM | GI50 (SN12C renal) 26.2 µM | GI50 (COLO 205 colon) > 35.6 µM | GI50 (SNB-75 CNS) 4.29 µM | GI50 (HCT-116 colon) 0.434 µM | GI50 (HS 578T breast) 32.4 µM | GI50 (CCRF-CEM leukemia) > 100 µM | GI50 (HCC-2998 colon) 31.7 µM | GI50 (NCI-H522 lung) 12.7 µM | GI50 (IGROV1 ovarian) 9.85 µM | GI50 (PC-3 prostate) 3.16 µM | GI50 (NCI/ADR-RES ovarian) 4.74 µM | GI50 (HT29 colon) 0.721 µM | GI50 (MOLT-4 leukemia) 0.451 µM | GI50 (K-562 leukemia) 0.505 µM | GI50 (SK-MEL-5 melanoma) 0.539 µM
> 78.9 µM: TGI (NCI-H522 lung)
> 62 µM: TGI (RXF 393 renal)
46 µM: TGI (SNB-75 CNS)
> 55.2 µM: TGI (SF-295 CNS)
> 82.1 µM: TGI (PC-3 prostate)
